# Read-outs that look alike come from different tables or passages of the source.
# Experiments:
# [1] = […] kinase assay, P-81 phosphocellulose; assay type: biochemical, Homo sapiens; conditions: read-out: MTT Assay ^a, IC50 (μM) / K-562
# [2] = target: T1, (Homo sapiens, UniProt P00519); assay: […] kinase assay, P-81 phosphocellulose; assay type: biochemical
# T1 construct: gene ABL1; Abl kinase
# CDK2/Cyclin E = target: T2, CDK2/Cyclin E (Homo sapiens, UniProt P24941); assay: […] kinase assay, P-81 phosphocellulose; assay type: biochemical
# T2 construct: kinase complex; with G1/S-specific cyclin-E1
# [3] = read-out: MTT Assay ^a, IC50 (μM) / K-562
# T1 sequence (P00519 whole entry): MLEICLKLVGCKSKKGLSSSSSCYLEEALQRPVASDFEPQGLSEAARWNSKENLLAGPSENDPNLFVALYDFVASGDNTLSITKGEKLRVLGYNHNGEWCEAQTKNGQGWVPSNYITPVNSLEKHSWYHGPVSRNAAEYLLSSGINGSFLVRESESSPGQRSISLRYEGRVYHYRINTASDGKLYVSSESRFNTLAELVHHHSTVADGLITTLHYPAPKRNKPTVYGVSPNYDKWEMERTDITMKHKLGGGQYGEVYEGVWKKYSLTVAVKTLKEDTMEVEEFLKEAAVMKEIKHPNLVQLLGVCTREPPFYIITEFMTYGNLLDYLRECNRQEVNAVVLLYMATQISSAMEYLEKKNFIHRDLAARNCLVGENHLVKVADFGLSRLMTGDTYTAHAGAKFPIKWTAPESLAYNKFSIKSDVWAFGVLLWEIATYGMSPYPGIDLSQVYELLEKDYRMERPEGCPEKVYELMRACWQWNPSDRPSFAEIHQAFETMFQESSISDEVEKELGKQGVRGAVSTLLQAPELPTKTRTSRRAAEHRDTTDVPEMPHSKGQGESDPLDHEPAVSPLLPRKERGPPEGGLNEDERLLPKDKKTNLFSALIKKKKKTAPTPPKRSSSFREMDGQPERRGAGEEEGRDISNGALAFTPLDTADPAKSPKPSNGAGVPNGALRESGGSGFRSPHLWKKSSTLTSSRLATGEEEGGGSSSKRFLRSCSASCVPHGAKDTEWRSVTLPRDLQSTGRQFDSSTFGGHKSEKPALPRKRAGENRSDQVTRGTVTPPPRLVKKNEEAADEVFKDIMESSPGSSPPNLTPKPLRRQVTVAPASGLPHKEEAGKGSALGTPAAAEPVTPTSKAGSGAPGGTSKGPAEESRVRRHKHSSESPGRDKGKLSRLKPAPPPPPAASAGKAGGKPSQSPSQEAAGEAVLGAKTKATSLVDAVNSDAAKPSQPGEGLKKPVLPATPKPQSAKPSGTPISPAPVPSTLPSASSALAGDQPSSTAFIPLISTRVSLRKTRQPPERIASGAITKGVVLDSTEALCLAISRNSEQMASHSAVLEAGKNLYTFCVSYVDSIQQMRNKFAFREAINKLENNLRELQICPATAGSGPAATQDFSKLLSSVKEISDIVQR
IC50 [1] [µM],"IC50 [2, 3] [µM]",IC50 (CDK2/Cyclin E) [µM],IC50 ([2]; read-out: IC50 (μM) ^a / CDK2/Cyclin E) [µM],Compound
> 100,> 100,–,–,"CSc1nnc2c(n1)c(C)nn2CC(O)CO (centres unmarked) [compound 4, 1-(2,3-dihydroxypropyl)-3-methyl–5-methylsulfanyl-1H-pyrazolo[4,3-e][1,2,4]triazine]"
–,–,> 50,> 50,"CCOC(=O)C(CCn1nc(C)c2nc(SC)nnc21)C(=O)OCC [compound 7, 1-(ethyl 2-carboethoxybutanoate-4-yl)-3-methyl-5-methylsulfanyl-1H-pyrazolo[4,3-e][1,2,4]triazine]"
> 100,> 100,–,–,"CSc1nnc2c(n1)c(C)nn2CCBr [compound 6, 1-(2-bromoethyl)-3-methyl-5-methylsulfanyl-1H-pyrazolo[4,3-e][1,2,4]triazine]"
> 100,> 100,–,–,"CSc1nnc2c(n1)c(C)nn2CCC(CO)CO [compound 8, 1-[(4-hydroxy-3-hydroxymethyl)butyl]-3-methyl-5-methylsufanyl-1H-pyrazolo[4,3-e][1,2,4]triazine]"
> 100,> 100,–,–,"CSc1nnc2[nH]nc(C)c2n1 [compound 1, 3-methyl-5-methylsulfanyl-1H-pyrazolo[4,3-e][1,2,4]triazine]"
> 100,> 100,–,–,"CSc1nnc2nn(CCO)c(C)c2n1 [compound 3, 2-(2-hydroxyethyl)-3-methyl-5-methylsulfanyl-2H-pyrazolo[4,3-e][1,2,4]triazine]"
> 100,> 100,–,–,"CSc1nnc2c(n1)c(C)nn2CCO [compound 2, 1-(2-hydroxyethyl)-3-methyl–5-methylsulfanyl-1H-pyrazolo[4,3-e][1,2,4]triazine]"
